Tests used:
[1] = target: T1, GIRK1/4(V-I) (Homo sapiens, UniProt P48544+P48549, V92I); assay: TEVC in Xenopus oocytes, single mutant GIRK1/4(V-I); type: cell-based; settings: GIRK1/4(V-I) single mutant
T1 construct: expressed in transfected cells; host or cells: Xenopus laevis oocytes (cRNA injection)
T1 sequence (P48549 1-501): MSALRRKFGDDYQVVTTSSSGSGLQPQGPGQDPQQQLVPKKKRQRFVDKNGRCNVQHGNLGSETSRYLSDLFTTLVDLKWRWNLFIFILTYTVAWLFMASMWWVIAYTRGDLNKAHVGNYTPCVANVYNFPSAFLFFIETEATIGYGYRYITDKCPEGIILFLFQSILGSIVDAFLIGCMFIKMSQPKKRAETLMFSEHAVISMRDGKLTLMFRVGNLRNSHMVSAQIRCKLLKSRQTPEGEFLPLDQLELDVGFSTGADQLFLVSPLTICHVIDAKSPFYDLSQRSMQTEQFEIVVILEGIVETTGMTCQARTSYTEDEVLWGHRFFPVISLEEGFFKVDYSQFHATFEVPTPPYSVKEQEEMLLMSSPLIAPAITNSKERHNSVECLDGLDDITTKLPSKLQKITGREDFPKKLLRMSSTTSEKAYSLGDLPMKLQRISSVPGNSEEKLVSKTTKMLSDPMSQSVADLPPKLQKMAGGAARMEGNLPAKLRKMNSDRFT
T1 sequence (P48544 1-419 V92I): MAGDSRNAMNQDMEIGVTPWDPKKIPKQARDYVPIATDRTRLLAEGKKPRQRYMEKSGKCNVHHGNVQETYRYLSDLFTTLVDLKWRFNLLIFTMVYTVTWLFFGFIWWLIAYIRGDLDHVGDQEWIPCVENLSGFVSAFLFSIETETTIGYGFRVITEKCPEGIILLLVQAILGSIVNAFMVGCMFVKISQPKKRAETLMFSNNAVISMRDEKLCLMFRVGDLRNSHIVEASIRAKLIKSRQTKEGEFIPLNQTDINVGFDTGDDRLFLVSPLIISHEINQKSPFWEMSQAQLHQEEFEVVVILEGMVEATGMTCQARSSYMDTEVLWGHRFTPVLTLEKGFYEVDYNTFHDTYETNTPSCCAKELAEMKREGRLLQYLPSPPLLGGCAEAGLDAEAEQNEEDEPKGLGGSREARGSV
Text: Molecular biology: For Xenopus oocyte expression, human GIRK1 and human GIRK4 cDNAs were subcloned into pGEMHE. For mammalian expression, human GIRK1 and human GIRK4 cDNAs were subcloned into pcDNA3 and pcDNA3.1/V5-His B, respectively (Invitrogen). Mouse GIRK2 cDNA was subcloned in the dual-function vector, pXoom. Point mutations were introduced using a standard Pfu-based mutagenesis technique according to the QuikChange protocol (Agilent). Mutations were verified by sequencing.
Electrophysiology of oocytes: Whole-oocyte currents were measured by conventional two-electrode voltage clamp (TEVC) with a GeneClamp 500 amplifier (Axon Instruments). Agarose cushion microelectrodes were filled with 1.5% (w/v) agarose in 3 M KCl and were used with resistances between 0.1 and 1.5 megaohms. […] Barium-sensitive basal currents from both groups, 1) Vehicle, 2) single concentration at 10 μM and 3) multiple concentrations of ML297 or GAT compounds in the presence of HK solution, were assessed at −80 mV using TEVC. Barium-sensitive currents were normalized to average basal current in the vehicle solutions. The HK solution contained the following: 96 mM KCl, 1 mM NaCl, 1 mM MgCl2, 5 mM KOH/HEPES, pH 7.4. The barium solution consisted of HK+10 mM BaCl2. Five to ten oocytes from the same batch (same frog) were recorded for each group, and the experiments were repeated in at least four batches. Data acquisition and analysis were carried out using pClamp9 (Molecular Devices) and OriginPro (Microcal) software.
To test these computational predictions, the inventors mutated each or both of the two M1 key wild-type GIRK4 subunit residues to the corresponding GIRK2 residues (GIRK4-V92I, GIRK4-T94V, GIRK4-V92I/T94V or GIRK4-dm) and vice-versa the GIRK2 residues to the corresponding GIRK4 ones (GIRK2-I97V, GIRK2-V99T, GIRK2-I97V/V99T or GIRK2-dm) (FIG. 35). […]

[2] = target: T2, GIRK1/2 (UniProt P48542+P48549); assay: thallium flux assay, cells expressing GIRK1/2; type: cell-based; set-up: expressed in transfected cells
T2 sequence (P48549 1-501): T1 sequence (P48549 1-501)
T2 sequence (P48542 1-425): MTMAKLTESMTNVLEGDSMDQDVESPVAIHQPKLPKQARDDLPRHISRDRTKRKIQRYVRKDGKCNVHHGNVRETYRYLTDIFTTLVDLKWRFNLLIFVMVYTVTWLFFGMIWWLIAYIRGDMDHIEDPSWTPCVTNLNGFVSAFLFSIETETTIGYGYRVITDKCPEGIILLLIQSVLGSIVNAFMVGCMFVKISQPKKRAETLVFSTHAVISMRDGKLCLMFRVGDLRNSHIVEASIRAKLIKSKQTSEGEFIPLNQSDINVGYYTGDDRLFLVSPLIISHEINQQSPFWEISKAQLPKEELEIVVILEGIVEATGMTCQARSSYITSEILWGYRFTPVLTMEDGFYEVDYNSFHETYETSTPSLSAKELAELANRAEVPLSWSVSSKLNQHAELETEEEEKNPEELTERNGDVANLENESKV
Text: Previous studies have utilized the thallium flux Assay to test the effects of ML297 and related compounds in cells coexpressing GIRK1/2 and GIRK1/4. In order to fully investigate the selective activation of GAT compounds, the inventors also utilized this assay. […] To determine the differences between the thallium flux and TEVC assays, the inventors computationally tested whether the binding of selective compounds could affect the selectivity of the pore area. The Cα RMSF of the region between the M1 and M2 helices of the channel were calculated during the MD simulation with or without ML297 and the selective GAT compounds in the GIRK2/2^FD and GIRK4/4^FD systems (FIGS. 60A-60B). […] To further test this idea, the inventors compared the 10 μM GAT1508-induced thallium and potassium currents in oocytes expressing GIRK1/2 and GIRK1/4 by TEVC recording (FIG. 61B). […] In an effort to enhance the current, the TEVC recording was performed at a holding potential of −100 mV.

Row | EC50 [1] | EMAX [1] | Emax ([1]; read-out: EMAX, % of the control GIRK1/2) | EC50 [2] | SMILES
1 | 530 ± 150 nM | 1.29±0.03 | 11% | – | Cc1cc(NC(=O)Nc2ccc(Br)s2)n(-c2ccccc2)n1 [GAT1508, 1-(5-bromothiophen-2-yl)-3-(3-methyl-1-phenyl-1H-pyrazol-5-yl)urea]
2 | – | – | – | ~689 nM | Cc1cc(NC(=O)Nc2ccc(F)c(F)c2)n(-c2ccccc2)n1 [ML297, reference compound]
